Laboratory results published in patent US20250361233A1, “Compounds For Activating Serotonin Receptor” (PSYLO PTY LTD, priority 2023, published 2025).

How the values were obtained:
Format in all cases: cell-based
5-HT2A receptor = molecular target: T1, 5-HT2A receptor (Homo sapiens, UniProt P28223); assay: FLIPR Ca2+ flux functional assay, agonist activity at 5-HT2A; settings: stably transfected HEK293 cells
T1 construct: host or cells: HEK293
Experimental: (§1) Functional assays 5-HT2A, 5-HT2B and 5-HT2C Receptors
(§2) Activity at 5-HT2A, 5-HT2B and 5-HT2C receptors was determined using a FLIPR Ca2+ flux assay at WuXi AppTec Co. Ltd. (Hong Kong) Discovery Biology Unit according to their standard protocols. Briefly, stably transfected cells expressing the receptor of interest (HEK293 for 5-HT2A and 5-HT2C; CHO-K1 for 5-HT2B) were grown and plated in a 384 well plate and incubated at 37° C. and 5% CO2 overnight. A 250 mM stock solution of probenecid in FLIPR calcium assay buffer (10 mL) was freshly prepared and combined with a fluorescent dye (Fluo-4 Direct) to give a final assay concentration of 2.5 mM. Reference compounds were 4-fold serially diluted and the screening compounds were 3-fold serially diluted in 100% DMSO for 10 points using Agilent Bravo, and 750 nL was added to a 384 well compound plate using Echo along with 30 μL assay buffer. The fluorescent dye was then added to the assay plate along with assay buffer to a final volume of 40 μL. The cell plate was incubated for 50 min at 37° C. and 5% CO2 and placed into the FLIPR Tetra along with the compound plate. 10 μL of references and compounds were then transferred from the compound plate into the cell plate and the fluorescent signal was read.

5-HT2B receptor = molecular target: T2, 5-HT2B receptor (Homo sapiens, UniProt P41595); assay: 5-HT2B activation in a similar assay at a single 10 μM concentration
T2 construct: host or cells: CHO-K1
T2 sequence (P41595 whole entry): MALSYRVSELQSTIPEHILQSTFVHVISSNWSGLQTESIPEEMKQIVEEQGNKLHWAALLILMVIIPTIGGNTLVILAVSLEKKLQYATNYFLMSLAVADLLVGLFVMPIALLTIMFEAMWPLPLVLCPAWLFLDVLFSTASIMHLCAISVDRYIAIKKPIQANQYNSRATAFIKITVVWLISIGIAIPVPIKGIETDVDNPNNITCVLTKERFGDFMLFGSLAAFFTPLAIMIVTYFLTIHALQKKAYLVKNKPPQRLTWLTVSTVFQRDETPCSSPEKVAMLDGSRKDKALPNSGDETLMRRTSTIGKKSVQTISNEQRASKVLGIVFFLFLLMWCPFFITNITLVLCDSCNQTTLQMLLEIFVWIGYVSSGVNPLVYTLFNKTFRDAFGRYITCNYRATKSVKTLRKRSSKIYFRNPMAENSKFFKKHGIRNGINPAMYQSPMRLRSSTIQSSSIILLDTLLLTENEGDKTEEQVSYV
Experimental: Activation data are provided in a similar assay tested at a single 10 μM concentration.

5-HT2C receptor = molecular target: T3, 5-HT2C receptor (Homo sapiens, UniProt P28335); assay: FLIPR Ca2+ flux functional assay, agonist activity at 5-HT2C; settings: stably transfected HEK293 cells
T3 construct: host or cells: HEK293
T3 sequence (P28335 33-458): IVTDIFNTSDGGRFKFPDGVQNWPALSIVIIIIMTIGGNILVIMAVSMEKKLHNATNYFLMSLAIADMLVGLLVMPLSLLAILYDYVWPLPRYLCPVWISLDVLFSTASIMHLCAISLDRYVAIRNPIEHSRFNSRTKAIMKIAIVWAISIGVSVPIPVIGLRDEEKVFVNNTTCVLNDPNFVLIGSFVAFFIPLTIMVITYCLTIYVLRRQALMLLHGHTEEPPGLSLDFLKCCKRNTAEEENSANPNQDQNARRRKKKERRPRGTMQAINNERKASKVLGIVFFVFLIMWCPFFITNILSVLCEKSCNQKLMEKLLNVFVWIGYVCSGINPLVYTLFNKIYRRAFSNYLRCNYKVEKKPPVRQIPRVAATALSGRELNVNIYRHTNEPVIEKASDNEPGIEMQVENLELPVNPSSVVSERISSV
Experimental: as §1, §2

T1 sequence (P28223 whole entry): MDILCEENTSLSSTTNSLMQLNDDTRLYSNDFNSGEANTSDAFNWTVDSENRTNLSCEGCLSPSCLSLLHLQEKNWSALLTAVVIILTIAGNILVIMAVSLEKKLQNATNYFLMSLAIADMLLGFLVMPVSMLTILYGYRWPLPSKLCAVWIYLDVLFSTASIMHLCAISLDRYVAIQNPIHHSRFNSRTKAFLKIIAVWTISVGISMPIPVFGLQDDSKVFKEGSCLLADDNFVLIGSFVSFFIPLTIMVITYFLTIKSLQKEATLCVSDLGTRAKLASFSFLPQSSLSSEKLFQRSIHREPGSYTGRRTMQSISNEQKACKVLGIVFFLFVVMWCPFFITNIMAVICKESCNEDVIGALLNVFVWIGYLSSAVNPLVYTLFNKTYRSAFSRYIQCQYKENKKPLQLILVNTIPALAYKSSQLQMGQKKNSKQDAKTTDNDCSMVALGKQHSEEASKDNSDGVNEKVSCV

Row | Structure (SMILES) | EC50 (5-HT2A receptor) [nM] | Emax (5-HT2A receptor) [%] | 5-HT2B % Activation @ 10 μM (5-HT2B receptor) [%] | EC50 (5-HT2C receptor) [nM] | Emax (5-HT2C receptor) [%]
1 | CN(CCc1c[nH]c2ncc(F)cc12)C1CC1 [Compound S1, N-(2-(5-fluoro-1H-pyrrolo[2,3-b]pyridin-3-yl)ethyl)-N-methylcyclopropanamine] | 33.7 | 82 | 2 | 1440 | 77
2 | Fc1cnc2[nH]cc(CCNC3CC3)c2c1 [Compound S2, N-(2-(5-fluoro-1H-pyrrolo[2,3-b]pyridin-3-yl)ethyl)cyclopropanamine] | 10.8 | 92 | 74 | 187 | 92
3 | Fc1cnc2[nH]cc(CCN(C3CC3)C3CC3)c2c1 [Compound S5, N-cyclopropyl-N-(2-(5-fluoro-1H-pyrrolo[2,3-b]pyridin-3-yl)ethyl)cyclopropanamine] | 1070 | 82 |  | > 10000 | 28
4 | Fc1cnc2[nH]cc(CCN3CCCC3)c2c1 [Compound S6, 5-fluoro-3-(2-(pyrrolidin-1-yl)ethyl)-1H-pyrrolo[2,3-b]pyridine] | 37.9 | 81 | 16 | 1860 | 81
5 | Fc1cnc2[nH]cc(CCN3CCCCC3)c2c1 [Compound S7, 5-fluoro-3-(2-(piperidin-1-yl)ethyl)-1H-pyrrolo[2,3-b]pyridine] | 529 | 70 | 0 | > 10000 | 2
6 | Fc1cnc2[nH]cc(CCN3CCC34CCC4)c2c1 [Compound S8, 3-(2-(1-azaspiro[3.3]heptan-1-yl)ethyl)-5-fluoro-1H-pyrrolo[2,3-b]pyridine] | 354 | 56 |  | > 10000 | 0
7 | Fc1cnc2[nH]cc(CCN3CCC3)c2c1 [Compound S9, 3-(2-(azetidin-1-yl)ethyl)-5-fluoro-1H-pyrrolo[2,3-b]pyridine] | 21 | 83 |  | 1480 | 72
8 | Fc1cnc2[nH]cc(CCNC3CCC3)c2c1 [Compound S11, N-(2-(5-fluoro-1H-pyrrolo[2,3-b]pyridin-3-yl)ethyl)cyclobutanamine] | 136 | 80 |  | > 10000 | 25
9 | CN(CCc1c[nH]c2ncc(F)cc12)C1CCC1 [Compound S12, N-(2-(5-fluoro-1H-pyrrolo[2,3-b]pyridin-3-yl)ethyl)-N-methylcyclobutanamine] | 79 | 84 |  | 3370 | 50
10 | Fc1cnc2[nH]cc(CCN3CCOCC3)c2c1 [Compound S15, 4-(2-(5-fluoro-1H-pyrrolo[2,3-b]pyridin-3-yl)ethyl)morpholine] | 1940 | 72 |  | > 10000 | 0
11 | CC1CCN1CCc1c[nH]c2ncc(F)cc12 (stereo not shown) [Compound S16, 3-(2-(2-methylazetidin-1-yl)ethyl)-5-fluoro-1H-pyrrolo[2,3-b]pyridine] | 32.5 | 81 |  | 1100 | 60
12 | Fc1cnc2[nH]cc(CCNCC3CC3)c2c1 [Compound S17, N-(cyclopropylmethyl)-2-(5-fluoro-1H-pyrrolo[2,3-b]pyridin-3-yl)ethan-1-amine] | 134 | 84 | 7 | 4120 | 35
13 | Fc1cnc2[nH]cc(CCN3CCC4CC43)c2c1 (stereo not shown) [Compound S25, 3-(2-(2-azabicyclo[3.1.0]hexan-2-yl)ethyl)-5-fluoro-1H-pyrrolo[2,3-b]pyridine] | 8.98 | 87 | 41 | 76 | 84
14 | Fc1cnc2[nH]cc(CCNCc3ccccc3F)c2c1 [Compound S30, 2-(5-fluoro-1H-pyrrolo[2,3-b]pyridin-3-yl)-N-(2-fluorobenzyl)ethan-1-amine] | 26.9 | 82 |  | 512 | 83
15 | Fc1cccc(CNCCc2c[nH]c3ncc(F)cc23)c1 [Compound S31, 2-(5-fluoro-1H-pyrrolo[2,3-b]pyridin-3-yl)-N-(3-fluorobenzyl)ethan-1-amine] | 15.5 | 87 |  | 515 | 76
16 | COc1ccccc1CNCCc1c[nH]c2ncc(F)cc12 [Compound S32, 2-(5-fluoro-1H-pyrrolo[2,3-b]pyridin-3-yl)-N-(2-methoxybenzyl)ethan-1-amine] | 3.31 | 94 |  | 206 | 89
17 | COc1cccc(CNCCc2c[nH]c3ncc(F)cc23)c1 [Compound S33, 2-(5-fluoro-1H-pyrrolo[2,3-b]pyridin-3-yl)-N-(3-methoxybenzyl)ethan-1-amine] | 8.27 | 82 |  | 244 | 87
18 | Fc1cnc2[nH]cc(CCNCc3ccccc3)c2c1 [Compound S34, N-benzyl-2-(5-fluoro-1H-pyrrolo[2,3-b]pyridin-3-yl)ethan-1-amine] | 18 | 90 |  | 319 | 84
19 | CN(CCc1c[nH]c2ncc(OC(F)(F)F)cc12)C1CC1 [Compound S41, N-methyl-N-(2-(5-(trifluoromethoxy)-1H-pyrrolo[2,3-b]pyridin-3-yl)ethyl)cyclopropanamine] | 822 | 41 | 0 | > 10000 | 0
20 | CN(CCc1c[nH]c2ncc(Cl)cc12)C1CC1 [Compound S42, N-(2-(5-chloro-1H-pyrrolo[2,3-b]pyridin-3-yl)ethyl)-N-methylcyclopropanamine] | 143 | 58 | 15 | 1100 | 75
21 | CN(CCc1c[nH]c2ncc(F)cc12)CC1CC1 [Compound S43, N-(cyclopropylmethyl)-2-(5-fluoro-1H-pyrrolo[2,3-b]pyridin-3-yl)-N-methylethan-1-amine] | 155 | 71 |  | 2740 | 55
22 | COc1cnc2[nH]cc(CCN(C)C3CC3)c2c1 [Compound S44, N-(2-(5-methoxy-1H-pyrrolo[2,3-b]pyridin-3-yl)ethyl)-N-methylcyclopropanamine] | 9.49 | 82 | 1 | 2830 | 45
23 | COc1cnc2[nH]cc(CCN3CCC3)c2c1 [Compound S45, 3-(2-(azetidin-1-yl)ethyl)-5-methoxy-1H-pyrrolo[2,3-b]pyridine] | 24 | 86 | 0 | > 10000 | 11
24 | COc1cnc2[nH]cc(CCN3CCCC3)c2c1 [Compound S46, 5-methoxy-3-(2-(pyrrolidin-1-yl)ethyl)-1H-pyrrolo[2,3-b]pyridine] | 47 | 91 | 3 | 4170 | 43
25 | COc1cnc2[nH]cc(CCN3CCCCC3)c2c1 [Compound S47, 5-methoxy-3-(2-(piperidin-1-yl)ethyl)-1H-pyrrolo[2,3-b]pyridine] | 673 | 65 | 0 | > 10000 | 8
26 | C[C@H]1CCN1CCc1c[nH]c2ncc(F)cc12 [Compound S48, (S)-5-fluoro-3-(2-(2-methylazetidin-1-yl)ethyl)-1H-pyrrolo[2,3-b]pyridine] | 115 | 82 | 2 | 3960 | 44
27 | C[C@@H]1CCN1CCc1c[nH]c2ncc(F)cc12 [Compound S49, (R)-5-fluoro-3-(2-(2-methylazetidin-1-yl)ethyl)-1H-pyrrolo[2,3-b]pyridine] | 65.7 | 78 | 0 | > 10000 | 28
28 | C[C@@H]1CCCN1CCc1c[nH]c2ncc(F)cc12 [Compound S50, (R)-5-fluoro-3-(2-(2-methylpyrrolidin-1-yl)ethyl)-1H-pyrrolo[2,3-b]pyridine] | 66.5 | 90 | 2 | 3980 | 44
